“Also recorded” adds a separate entry of the source.
Tests used:
DLCL2 xenograft = experiment: DLCL2 lymphoma xenograft model; assay type: in vivo; conditions: DLCL2 xenograft in SCID mice, dosed orally
[1] = test system: pERK / BCR signal transduction pathway in Ramos cells; experiment: BCR pathway phosphorylation (phospho-specific antibodies) in Ramos; assay type: cell-based
Text: (§1) To identify biomarkers that correlate with response to Compound 1, phosphorylation events in the BCR signal transduction pathway were investigated.
(§2) However, when we examined basal phosphorylation levels, we found higher basal phosphorylation in DOHH2 compared to Ramos, with phospho-ERK in particular indicating higher levels of basal or tonic signaling in DOHH2.

DOHH2 xenograft = experiment: DOHH2 lymphoma xenograft model; assay type: in vivo; conditions: DOHH2 xenograft in SCID mice, dosed orally
lymphoma cell lines = experiment: In vitro cell proliferation, variety of lymphoma cell lines; assay type: cell-based; conditions: 72 hours
Protocol: (§3) After 72 hours, cell number was measured using Alamar Blue using manufacturer's protocol. A dilution series of untreated cells was run in parallel to verify that the Alamar Blue assay reliably reflected cell number and that growth conditions were not limiting. […] GI50 values were confirmed in two or more separate experiments for each cell line.

[2] = test system: MRL/lpr model of lupus (proteinuria); experiment: Mouse MRL/lpr model of lupus; assay type: in vivo, MRL/lpr mice
Text: FIG. 3 presents an illustrative line graph showing inhibition of disease progression in a mouse MRL/lpr model of lupus.

Ramos cells = experiment: Cell proliferation, Ramos cell line; assay type: cell-based
Protocol: as §3, §1

mast cell degranulation = experiment: Mouse passive cutaneous anaphylaxis model; assay type: in vivo, mice; conditions: single oral dose, increasing doses, 1 hour before DNP-BSA challenge
Protocol: FIG. 4 presents an illustrative bar graph showing inhibition of mast cell degranulation in a mouse passive cutaneous anaphylaxis model. […] After one hour, animals were challenged with an intravenous injection of DNP-BSA and Evans Blue dye and the area of extravasation was measured.
Mice were sensitized with an intradermal injection of monoclonal anti-DNP-IgE in the back. […] After one hour, animals were challenged with an intravenous injection of DNP-BSA and Evans Blue dye. Mast cell degranulation leads to vascular permeability and the distribution of the dye into the skin of the back. The area of extravasation after 1 hour is measured.

[3] = Plasma concentrations after oral dosing of rats; assay type: in vivo, male jugular vein cannulated rats; conditions: rat plasma, single 8 mg/kg dose by oral gavage, dosed in combination
Protocol: Blood samples were collected at 0.0833 (5 minutes), 0.333 (20 minutes), 1, 3, 6, 9, and 24 hours post-dosing from orally dosed rats.
Male jugular vein cannulated rats were administered a single dose of all test compounds at 8 mg/kg each, in combination by oral gavage. Dose volumes were adjusted based on body weight data collected immediately prior to dosing. Blood samples were collected at 0.0833 (5 minutes), 0.333 (20 minutes), 1, 3, 6, 9, and 24 hours post-dosing from orally dosed rats. The samples were collected into plasma separator Microtainer tubes with anticoagulant (lithium heparin). Plasma samples were prepared by centrifugation (5 min at 5000×g), and at least 100 μL were transferred to storage tubes and stored frozen at −80° C. Plasma samples were thawed and 75 uL aliquots were transferred to centrifuge tubes to which 10 μL aliquots of internal standard solution (1 μg/mL) were added. The samples were not diluted with blank plasma prior to further processing. Soluble proteins were precipitated by the addition of 200 μL of acetonitrile, followed by centrifugation (20 min at 16,000×g). The samples were evaporated to dryness and reconstituted in 200 μL of water containing 0.2% formic acid and 10% methanol. All samples were loaded onto an autosampler maintained at 6° C. and evaluated for concentrations of test compounds using LC-MS/MS.

normal human B cells = experiment: B cell activation after brief exposure and washout (CD69); assay type: cell-based; conditions: 1 hour exposure, washed three times, then IgM F(ab')2 stimulation for 18 hours
Protocol: B cells were purified from blood from healthy donors by negative selecting using the RosetteSep Human B cell enrichment cocktail. […] After incubation for 1 hour at 37° C., cells were washed three times using an 8-fold dilution in growth media for each wash. Cells were then stimulated with IgM F(ab′)2 for 18 hours at 37° C., stained with anti-CD69-PE antibody and analyzed by flow cytometry.
B cells were purified from blood from healthy donors by negative selecting using the RosetteSep Human B cell enrichment cocktail. […] After incubation for 1 hour at 37° C., cells were washed three times using an 8-fold dilution in growth media for each wash. Cells were then stimulated with 10 ug/ml of IgM F(ab′)2 for 18 hours at 37° C. Cells were then stained with anti-CD69-PE antibody and analyzed by flow cytometry using standard conditions.

[4] = test system: Btk expressing B cell lymphoma cell lines; experiment: Panel of nine Btk expressing B cell lymphoma cell lines, sensitivity vs basal pERK; assay type: cell-based
Protocol: as §3
A panel of nine Btk expressing B cell lymphoma cell lines was screened for basal pERK levels.

[5] = test system: collagen-induced arthritis (paw inflammation); experiment: Collagen-induced arthritis in the mouse; assay type: in vivo, male DBA/1OlaHsd mice
Protocol: […]. Compound for vehicle was dosed orally once per day starting at day 1. Dexamethasone was included as a positive control. Paw inflammation was scored from 0-5 and averaged across all paws from all animals for each group in the study.
. After paw inflammation was established, animals were randomized and Compound for vehicle was dosed orally once per day starting at day 1. Paw inflammation was scored from 0-5 and averaged across all paws from all animals for each group in the study. […] Dexamethasone was included as a positive control.

[6] = Glutathione binding assay; assay type: physicochemical; conditions: 5 mM glutathione, 10 μM inhibitor, potassium phosphate buffer, room temperature, HPLC
Protocol: A calculated value (e.g (1/Btk IC50)/Glutathione conjugation rate) as shown in the Table 2) is used to compare compounds for their ratio between potency at inhibiting their target and their non-specific binding to other SH groups, such as those in glutathione. […] Calculated ratios such as these are used to quantitatively compare different compounds and select compounds for further study.
For the glutathione binding assays, 5 mM glutathione, 10 μM Btk inhibitor in DMSO (10 μL) and 6 equivalents of N′N′ Diisopropyl ethyl amine were combined in 1 mL potassium phosphate buffer. The mixture was incubated for 0, 15, 60 minutes at room temperature and the reaction was stopped with 10 equivalents of formic acid. 50 μL of each reaction mixture was injected on HPLC (Mobil Phase A: 0.2% formic acid in water, Mobile Phase B: 0.2% formic acid in acetonitrile, HPLC Column: Metasil Basic 3μ, 150×4.6 mm, 10% B, Gradient: 10% to 90% B, Detection: UV/Vis […]). Rate of reaction was reported as nmole GSH conjugate conversion per minute from the normalized ratio for area under the curve from HPLC chromatograms for both GSH conjugate and the parent.

[7] = test system: pERK / BCR signal transduction pathway in DOHH2 cells; experiment: BCR pathway phosphorylation (phospho-specific antibodies) in DOHH2; assay type: cell-based
Text: as §1, §2

[8] = target: panel of greater than 100 kinases (Tec family kinases including Btk, Src family kinases); experiment: In vitro profiling against a panel of greater than 100 kinases; assay type: biochemical
Text: By way of example only and in some embodiments, the observed potency, selectivity, and cell permeability of compounds such as Compound 2 are appropriate to incorporate these molecules into a Kinase-targeted, activity based probe that allows direct visualization of Kinase activity in intact cells. […] Without limiting the scope of the compositions and methods described herein, it is postulated that the structural basis for the selectivity is covalent modification of a non-catalytic cysteine residue (Cys 481 in Btk) that is conserved in the ATP binding pocket of the Tec family and several other kinases.

BTK = BTK (Homo sapiens (Human), UniProt Q06187); experiment: HotSpot kinase assay, BTK; assay type: biochemical; conditions: purified enzyme, 33P-ATP, 1 uM ATP
Chain of BTK (Q06187 whole entry): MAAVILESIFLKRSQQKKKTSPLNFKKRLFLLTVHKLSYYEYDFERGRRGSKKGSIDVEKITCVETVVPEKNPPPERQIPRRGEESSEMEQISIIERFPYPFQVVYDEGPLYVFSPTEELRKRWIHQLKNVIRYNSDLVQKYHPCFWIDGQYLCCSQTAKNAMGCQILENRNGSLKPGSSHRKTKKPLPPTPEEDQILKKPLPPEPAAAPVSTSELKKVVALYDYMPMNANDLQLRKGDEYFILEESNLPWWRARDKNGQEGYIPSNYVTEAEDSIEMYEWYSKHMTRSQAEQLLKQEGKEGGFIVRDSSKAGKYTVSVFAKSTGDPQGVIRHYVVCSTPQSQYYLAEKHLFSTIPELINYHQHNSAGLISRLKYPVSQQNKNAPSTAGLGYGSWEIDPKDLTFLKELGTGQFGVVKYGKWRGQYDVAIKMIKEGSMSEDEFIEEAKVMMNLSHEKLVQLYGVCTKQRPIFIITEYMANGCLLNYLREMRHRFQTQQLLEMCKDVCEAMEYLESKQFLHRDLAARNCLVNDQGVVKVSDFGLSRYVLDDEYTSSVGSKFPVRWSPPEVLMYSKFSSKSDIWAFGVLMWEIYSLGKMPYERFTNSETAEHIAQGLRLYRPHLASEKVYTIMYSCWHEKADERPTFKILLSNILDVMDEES

Egr-1 = experiment: Expression of ERK transcriptional target Egr-1; assay type: cell-based; conditions: 1 uM
[9] = 12.5 mg/kg orally once per day, to day 11
[10] = 50 mg/kg orally once per day, to day 11

C=CC(=O)N1CCC[C@@H](n2nc(-c3ccc(Oc4ccccc4)cc3)c3c(N)ncnc32)C1 [Compound 1]
tumor growth (DLCL2 xenograft): inhibition of tumor growth; also recorded: inhibits tumor growth
BCR-stimulus induced phosphorylation events ([1]; Ramos, anti-IgM or anti-IgG cross-linking): inhibits most BCR-stimulus induced phosphorylation events
tumor growth (DOHH2 xenograft): inhibition of tumor growth; also recorded: inhibits tumor growth
lymphoma tumor cell growth (lymphoma cell lines): inhibits lymphoma tumor cell growth
proteinuria (urine protein levels) ([2]; 3.125 mg/kg orally once per day until 20 weeks of age): significantly reduced proteinuria
proteinuria (urine protein levels) ([2]; 12.5 mg/kg orally once per day until 20 weeks of age): significantly reduced proteinuria
proteinuria (urine protein levels) ([2]; 50 mg/kg orally once per day until 20 weeks of age): significantly reduced proteinuria
sensitivity of cell line to compound (Ramos cells): resistant
amount of Evans Blue release (area of extravasation) (mast cell degranulation): significantly decrease the amount of Evans Blue release
in vivo half-life [3]: short half-life in vivo
B cell activation (CD69) (normal human B cells): sufficient to inhibit B cell activation
GI50 ([4]; 5 of the seven lines with significantly higher basal pERK): < 1300 nM
sensitivity of cell lines to compound ([4]; the two cell lines with low pERK levels): resistant
paw inflammation ([5]; 3.125 mg/kg orally once per day, to day 11): significantly reduced the increase in paw inflammation
paw inflammation ([5]; 12.5 mg/kg intermittent dosing: days 1, 2, 3 or days 9, 10, 11 of an 11-day period): reduced the increase in paw inflammation
paw inflammation [5, 9]: regressed inflammation
paw inflammation [5, 10]: regressed inflammation
Glutathione Conj Rate [6]: 0.398 nmol/min
BCR-stimulus induced phosphorylation events ([7]; DOHH2, anti-IgM or anti-IgG cross-linking): inhibits most BCR-stimulus induced phosphorylation events

CN(C)C/C=C/C(=O)N1CCC[C@@H](n2nc(-c3ccc(Oc4ccccc4)cc3)c3c(N)ncnc32)C1 [Compound 2]
kinase panel profile [8]: highly potent and selective inhibitor of Tec family kinases, including, Btk, as well as Src family kinases

Nc1ncnc2c1c(-c1ccc(Oc3ccccc3)cc1)nn2C1CCCN(C(=O)/C=C/c2c[nH]cn2)C1 (stereo not drawn) [Compound 4]
decrease of pERK levels ([1]; unstimulated Ramos cells (basal)): not
IC50 (BTK): 22.2 nM
time to reduced Egr-1 expression (Egr-1): ≤ 1 h
maximal downregulation of Egr-1 expression (Egr-1; achieved by 4 hr): 10 fold
IC50 ([7]; unstimulated DOHH2 cells (basal), read-out: pERK levels IC50): < 10 nM

Nc1ncnc2c1c(-c1ccc(Oc3ccccc3)cc1)nn2C1CCCN(C(=O)/C=C/CN2CCOCC2)C1 (stereo not drawn) [Compound 5, (E)-1-(3-(4-amino-3-(4-phenoxyphenyl)-1H-pyrazolo[3,4-d]pyrimidin-1-yl)piperidin-1-yl)-4-morpholinobut-2-en-1-one]
Glutathione Conj Rate [6]: 0.004 nmol/min

C=CC(=O)N1CCC(n2nc(-c3ccc(Oc4ccccc4)cc3)c3c(N)ncnc32)CC1 [Compound 6]
Glutathione Conj Rate [6]: 0.39 nmol/min

CN(C)C/C=C/C(=O)N1CCC(n2nc(-c3ccc(Oc4ccccc4)cc3)c3c(N)ncnc32)CC1 [Compound 7, (E)-1-(4-(4-amino-3-(4-phenoxyphenyl)-1H-pyrazolo[3,4-d]pyrimidin-1-yl)piperidin-1-yl)-4-(dimethylamino)but-2-en-1-one]
in vivo half-life [3]: significantly longer in vivo half-life
Glutathione Conj Rate [6]: 0.01 nmol/min

CN(C)C/C=C/C(=O)N[C@H]1CC[C@@H](n2nc(-c3ccc(Oc4ccccc4)cc3)c3c(N)ncnc32)CC1 [Compound 8, (E)-N-((1s,4s)-4-(4-amino-3-(4-phenoxyphenyl)-1H-pyrazolo[3,4-d]pyrimidin-1-yl)cyclohexyl)-4-(dimethylamino)but-2-enamide]
in vivo half-life [3]: significantly longer in vivo half-life

C=CC(=O)N[C@H]1CC[C@@H](n2nc(-c3ccc(Oc4ccccc4)cc3)c3c(N)ncnc32)CC1 [Compound 9]
paw inflammation [5, 9]: reduced the increase in paw inflammation
paw inflammation [5, 10]: reduced the increase in paw inflammation

CN(C)C/C=C/C(=O)N1CCC[C@H]1Cn1nc(-c2ccc(Oc3ccccc3)cc2)c2c(N)ncnc21 [Compound 12, (E)-1-((S)-2-((4-amino-3-(4-phenoxyphenyl)-1H-pyrazolo[3,4-d]pyrimidin-1-yl)methyl)pyrolidin-1-yl)-4-(dimethylamino)but-2-en-1-one]
in vivo half-life [3]: short half-life in vivo
Glutathione Conj Rate [6]: 0.004361 nmol/min

CC#CC(=O)N1CCC[C@@H](n2nc(-c3ccc(Oc4ccccc4)cc3)c3c(N)ncnc32)C1 [Compound 17, 1-((R)-3-(4-amino-3-(4-phenoxyphenyl)-1H-pyrazolo[3,4-d]pyrimidin-1-yl)piperidin-1-yl)but-2-yn-1-one]
Glutathione Conj Rate [6]: 0.0243 nmol/min

CC#CC(=O)N[C@H]1CC[C@@H](n2nc(-c3ccc(Oc4ccccc4)cc3)c3c(N)ncnc32)CC1 [Compound 22, N-((1s,4s)-4-(4-amino-3-(4-phenoxyphenyl)-1H-pyrazolo[3,4-d]pyrimidin-1-yl)cyclohexyl)but-2-ynamide]
Glutathione Conj Rate [6]: 0.014 nmol/min

— US9181263B2, “Inhibitors of bruton's tyrosine kinase” (PHARMACYCLICS, INC., priority 2007, dated 2015)
